Test results published in patent publication US20250228239A1, “MOLECULES HAVING PESTICIDAL UTILITY, AND INTERMEDIATES, COMPOSITIONS, AND PROCESSES, RELATED THERETO” (priority 2024, published 2025).
Where two headings read alike, the source gives them in different places.

Columns and labels:
[1] = test system: Beet Armyworm (Spodoptera exigua, LAPHEG); assay: Bioassays on Beet Armyworm (BAW), 128-well diet tray assay; assay type: in vivo; conditions: Spodoptera exigua, read-out: BAW
Summary of the method: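 Second-instar larvae, one to five per well, were placed on artificial diet surface-treated with 50 μg/cm^2 compound in 90:10 acetone-water, eight wells per treatment. Trays were held 5–7 days at 25 °C, 14:10 light-dark. Percent mortality per well was averaged over eight wells.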

[2] = test system: Cabbage Looper (Trichoplusia ni, TRIPNI); assay: Bioassays on Cabbage Looper (CL), 128-well diet tray assay; assay type: in vivo; conditions: Trichoplusia ni, read-out: CL
Summary of the method: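 Test molecule was dissolved in 90:10 acetone-water, applied to artificial diet at 50 μg/cm^2 and allowed to dry. Second-instar larvae were then added, one to five per well, and trays held at 25° C for five to seven days before mortality was scored and averaged.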

[3] = Table ABC: Biological Results, species BAW
[4] = Table ABC: Biological Results, species CL

`O=C(Nc1c(F)ccc(NC(=O)C(F)(F)F)c1F)c1cc(NC(=O)[C@H]2[C@H](c3cc(Cl)cc(Cl)c3)C2(Cl)Cl)cc(F)c1Cl` [F1340, 2-Chloro-5-((1R,3R)-2,2-dichloro-3-(3,5-dichlorophenyl)cyclopropane-1-carboxamido)-N-(2,6-difluoro-3-(2,2,2-trifluoroacetamido)phenyl)-3-fluorobenzamide] showed a pest or weed control at 50 µg/cm2 [1, 3] of 50 to 100% and a pest or weed control at 50 µg/cm2 [2, 4] of 50 to 100%.

`O=C(Nc1c(F)ccc(NC(=O)C(F)F)c1F)c1cc(NC(=O)[C@H]2[C@H](c3cc(Cl)cc(Cl)c3)C2(Cl)Cl)cc(F)c1Cl` [F1341, 2-Chloro-5-((1R,3R)-2,2-dichloro-3-(3,5-dichlorophenyl)cyclopropane-1-carboxamido)-N-(3-(2,2-difluoroacetamido)-2,6-difluorophenyl)-3-fluorobenzamide] gave a pest or weed control at 50 µg/cm2 [1, 3] of 50 to 100% and a pest or weed control at 50 µg/cm2 [2, 4] of 50 to 100%.

`O=C(Nc1c(F)ccc(NC(=O)C(F)(F)F)c1F)c1cc(NC(=O)[C@H]2[C@H](c3cc(Cl)c(Cl)c(Cl)c3)C2(Cl)Cl)cc(F)c1Cl` [F1342, 2-Chloro-5-((1R,3R)-2,2-dichloro-3-(3,4,5-trichlorophenyl)cyclopropane-1-carboxamido)-N-(2,6-difluoro-3-(2,2,2-trifluoroacetamido)phenyl)-3-fluorobenzamide] showed a pest or weed control at 50 µg/cm2 [1, 3] of 50 to 100% and a pest or weed control at 50 µg/cm2 [2, 4] of 50 to 100%.

Molecule `O=C(Nc1c(F)ccc(NC(=O)C(F)F)c1F)c1cc(NC(=O)[C@H]2[C@H](c3cc(Cl)c(Cl)c(Cl)c3)C2(Cl)Cl)cc(F)c1Cl` [F1343, 2-Chloro-5-((1R,3R)-2,2-dichloro-3-(3,4,5-trichlorophenyl)cyclopropane-1-carboxamido)-N-(3-(2,2-difluoroacetamido)-2,6-difluorophenyl)-3-fluorobenzamide] has a pest or weed control at 50 µg/cm2 [1, 3] of 50 to 100% and a pest or weed control at 50 µg/cm2 [2, 4] of 50 to 100%.

Work on `O=C(Nc1c(F)ccc(NC(=O)C(F)(F)F)c1F)c1cc(NC(=O)[C@H]2[C@H](c3ccc(Cl)c(Cl)c3)C2(Cl)Cl)cc(F)c1Cl` [F1344, 2-Chloro-5-((1R,3R)-2,2-dichloro-3-(3,4-dichlorophenyl)cyclopropane-1-carboxamido)-N-(2,6-difluoro-3-(2,2,2-trifluoroacetamido)phenyl)-3-fluorobenzamide] yielded a pest or weed control at 50 µg/cm2 [1, 3] of 50 to 100% and a pest or weed control at 50 µg/cm2 [2, 4] of 50 to 100%.

For `O=C(Nc1c(F)ccc(NC(=O)C(F)F)c1F)c1cc(NC(=O)[C@H]2[C@H](c3ccc(Cl)c(Cl)c3)C2(Cl)Cl)cc(F)c1Cl` [F1345, 2-Chloro-5-((1R,3R)-2,2-dichloro-3-(3,4-dichlorophenyl)cyclopropane-1-carboxamido)-N-(3-(2,2-difluoroacetamido)-2,6-difluorophenyl)-3-fluorobenzamide], the pest or weed control at 50 µg/cm2 [1, 3] was 50 to 100% and the pest or weed control at 50 µg/cm2 [2, 4] was 50 to 100%.

Molecule `O=C(Nc1c(F)ccc(NC(=O)C(F)(F)F)c1F)c1cc(NC(=O)[C@H]2[C@H](c3ccc(F)c(C(F)(F)F)c3)C2(Cl)Cl)cc(F)c1Cl` [F1346, 2-Chloro-5-((1R,3R)-2,2-dichloro-3-(4-fluoro-3-(trifluoromethyl)phenyl)cyclopropane-1-carboxamido)-N-(2,6-difluoro-3-(2,2,2-trifluoroacetamido)phenyl)-3-fluorobenzamide] has a pest or weed control at 50 µg/cm2 [1, 3] of 50 to 100% and a pest or weed control at 50 µg/cm2 [2, 4] of 50 to 100%.

In the case of `O=C(Nc1c(F)ccc(NC(=O)C(F)F)c1F)c1cc(NC(=O)[C@H]2[C@H](c3ccc(F)c(C(F)(F)F)c3)C2(Cl)Cl)cc(F)c1Cl` [F1347, 2-Chloro-5-((1R,3R)-2,2-dichloro-3-(4-fluoro-3-(trifluoromethyl)phenyl)cyclopropane-1-carboxamido)-N-(3-(2,2-difluoroacetamido)-2,6-difluorophenyl)-3-fluorobenzamide], the pest or weed control at 50 µg/cm2 [1, 3] is reported as 50 to 100% and the pest or weed control at 50 µg/cm2 [2, 4] is reported as 50 to 100%.

`O=C(Nc1ccc(F)c(NS(=O)(=O)CCC(F)(F)F)c1F)c1cc(NC(=O)[C@H]2[C@H](c3ccc(F)c(C(F)(F)F)c3)C2(Cl)Cl)ccc1Cl` [F1350, 2-Chloro-5-((1R,3R)-2,2-dichloro-3-(4-fluoro-3-(trifluoromethyl)phenyl)cyclopropane-1-carboxamido)-N-(2,4-difluoro-3-((3,3,3-trifluoropropyl)sulfonamido)phenyl)benzamide] was tested, and the pest or weed control at 50 µg/cm2 [1, 3] was 50 to 100% and the pest or weed control at 50 µg/cm2 [2, 4] was 50 to 100%.

`O=C(Nc1c(F)ccc(NC(=O)C(F)(F)Br)c1F)c1cc(NC(=O)[C@H]2[C@H](c3ccc(F)c(C(F)(F)F)c3)C2(Cl)Cl)cc(F)c1Cl` [F1356, N-(3-(2-Bromo-2,2-difluoroacetamido)-2,6-difluorophenyl)-2-chloro-5-((1R,3R)-2,2-dichloro-3-(4-fluoro-3-(trifluoromethyl)phenyl)cyclopropane-1-carboxamido)-3-fluorobenzamide] was tested, and the pest or weed control at 50 µg/cm2 [1, 3] was 50 to 100% and the pest or weed control at 50 µg/cm2 [2, 4] was 50 to 100%.

`O=C(Nc1ccc(F)c(NS(=O)(=O)CC2CC2(Cl)Cl)c1F)c1cc(NC(=O)[C@H]2[C@H](c3ccc(F)c(C(F)(F)F)c3)C2(Cl)Cl)ccc1Cl` (stereo partly drawn) [F1361, 2-Chloro-5-((1R,3R)-2,2-dichloro-3-(4-fluoro-3-(trifluoromethyl)phenyl)cyclopropane-1-carboxamido)-N-(3-(((2,2-dichlorocyclopropyl)methyl)sulfonamido)-2,4-difluorophenyl)benzamide] showed a pest or weed control at 50 µg/cm2 [1, 3] of 50 to 100% and a pest or weed control at 50 µg/cm2 [2, 4] of 50 to 100%.

For `Nc1cc(NC(=O)c2cc(NC(=O)[C@H]3[C@H](c4ccc(F)c(Cl)c4)C3(Cl)Cl)cc(F)c2Cl)c(F)cc1F` [F1395, N-(5-Amino-2,4-difluorophenyl)-2-chloro-5-((1R,3R)-2,2-dichloro-3-(3-chloro-4-fluorophenyl)cyclopropane-1-carboxamido)-3-fluorobenzamide], the pest or weed control at 50 µg/cm2 ([1]; Beet Armyworm, rating class) was 50 to 100% and the pest or weed control at 50 µg/cm2 ([2]; Cabbage Looper, rating class) was 50 to 100%.

Work on `Nc1cc(NC(=O)c2cc(NC(=O)[C@H]3[C@H](c4ccc(Cl)c(Cl)c4)C3(Cl)Cl)cc(F)c2Cl)c(F)cc1F` [F1396, N-(5-Amino-2,4-difluorophenyl)-2-chloro-5-((1R,3R)-2,2-dichloro-3-(3,4-dichlorophenyl)cyclopropane-1-carboxamido)-3-fluorobenzamide] yielded a pest or weed control at 50 µg/cm2 ([1]; Beet Armyworm, rating class) of 50 to 100% and a pest or weed control at 50 µg/cm2 ([2]; Cabbage Looper, rating class) of 50 to 100%.

In the case of `Nc1cc(NC(=O)c2cc(NC(=O)[C@H]3[C@H](c4cc(Cl)c(Cl)c(Cl)c4)C3(Cl)Cl)cc(F)c2Cl)c(F)cc1F` [F1397, N-(5-Amino-2,4-difluorophenyl)-2-chloro-5-((1R,3R)-2,2-dichloro-3-(3,4,5-trichlorophenyl)cyclopropane-1-carboxamido)-3-fluorobenzamide], the pest or weed control at 50 µg/cm2 ([1]; Beet Armyworm, rating class) is reported as 50 to 100% and the pest or weed control at 50 µg/cm2 ([2]; Cabbage Looper, rating class) is reported as 50 to 100%.

Molecule `Nc1cc(NC(=O)c2cc(NC(=O)[C@H]3[C@H](c4ccc(F)c(C(F)(F)F)c4)C3(Cl)Cl)cc(F)c2Cl)c(F)cc1F` [F1398, N-(5-Amino-2,4-difluorophenyl)-2-chloro-5-((1R,3R)-2,2-dichloro-3-(4-fluoro-3-(trifluoromethyl)phenyl)cyclopropane-1-carboxamido)-3-fluorobenzamide] has a pest or weed control at 50 µg/cm2 ([1]; Beet Armyworm, rating class) of 50 to 100% and a pest or weed control at 50 µg/cm2 ([2]; Cabbage Looper, rating class) of 50 to 100%.

Work on `Nc1cc(NC(=O)c2cc(NC(=O)[C@H]3[C@H](c4cc(Cl)cc(Cl)c4)C3(Cl)Cl)cc(F)c2Cl)c(F)cc1F` [F1399, N-(5-Amino-2,4-difluorophenyl)-2-chloro-5-((1R,3R)-2,2-dichloro-3-(3,5-dichlorophenyl)cyclopropane-1-carboxamido)-3-fluorobenzamide] yielded a pest or weed control at 50 µg/cm2 ([1]; Beet Armyworm, rating class) of 50 to 100% and a pest or weed control at 50 µg/cm2 ([2]; Cabbage Looper, rating class) of 50 to 100%.

In the case of `O=C(Nc1cc(NC(=O)C(F)F)c(F)cc1F)c1cc(NC(=O)[C@H]2[C@H](c3ccc(F)c(Cl)c3)C2(Cl)Cl)cc(F)c1Cl` [F1400, 2-Chloro-5-((1R,3R)-2,2-dichloro-3-(3-chloro-4-fluorophenyl)cyclopropane-1-carboxamido)-N-(5-(2,2-difluoroacetamido)-2,4-difluorophenyl)-3-fluorobenzamide], the pest or weed control at 50 µg/cm2 ([1]; Beet Armyworm, rating class) is reported as 50 to 100% and the pest or weed control at 50 µg/cm2 ([2]; Cabbage Looper, rating class) is reported as 50 to 100%.

For `O=C(Nc1cc(NC(=O)C(F)(F)F)c(F)cc1F)c1cc(NC(=O)[C@H]2[C@H](c3ccc(F)c(Cl)c3)C2(Cl)Cl)cc(F)c1Cl` [F1401, 2-Chloro-5-((1R,3R)-2,2-dichloro-3-(3-chloro-4-fluorophenyl)cyclopropane-1-carboxamido)-N-(2,4-difluoro-5-(2,2,2-trifluoroacetamido)phenyl)-3-fluorobenzamide], the pest or weed control at 50 µg/cm2 ([1]; Beet Armyworm, rating class) was 50 to 100% and the pest or weed control at 50 µg/cm2 ([2]; Cabbage Looper, rating class) was 50 to 100%.

`O=C(Nc1cc(NC(=O)C(F)F)c(F)cc1F)c1cc(NC(=O)[C@H]2[C@H](c3ccc(Cl)c(Cl)c3)C2(Cl)Cl)cc(F)c1Cl` [F1402, 2-Chloro-5-((1R,3R)-2,2-dichloro-3-(3,4-dichlorophenyl)cyclopropane-1-carboxamido)-N-(5-(2,2-difluoroacetamido)-2,4-difluorophenyl)-3-fluorobenzamide] gave a pest or weed control at 50 µg/cm2 ([1]; Beet Armyworm, rating class) of 50 to 100% and a pest or weed control at 50 µg/cm2 ([2]; Cabbage Looper, rating class) of 50 to 100%.

Work on `O=C(Nc1cc(NC(=O)C(F)(F)F)c(F)cc1F)c1cc(NC(=O)[C@H]2[C@H](c3ccc(Cl)c(Cl)c3)C2(Cl)Cl)cc(F)c1Cl` [F1403, 2-Chloro-5-((1R,3R)-2,2-dichloro-3-(3,4-dichlorophenyl)cyclopropane-1-carboxamido)-N-(2,4-difluoro-5-(2,2,2-trifluoroacetamido)phenyl)-3-fluorobenzamide] yielded a pest or weed control at 50 µg/cm2 ([1]; Beet Armyworm, rating class) of 50 to 100% and a pest or weed control at 50 µg/cm2 ([2]; Cabbage Looper, rating class) of 50 to 100%.

`O=C(Nc1cc(NC(=O)C(F)F)c(F)cc1F)c1cc(NC(=O)[C@H]2[C@H](c3cc(Cl)c(Cl)c(Cl)c3)C2(Cl)Cl)cc(F)c1Cl` [F1404, 2-Chloro-5-((1R,3R)-2,2-dichloro-3-(3,4,5-trichlorophenyl)cyclopropane-1-carboxamido)-N-(5-(2,2-difluoroacetamido)-2,4-difluorophenyl)-3-fluorobenzamide] gave a pest or weed control at 50 µg/cm2 ([1]; Beet Armyworm, rating class) of 50 to 100% and a pest or weed control at 50 µg/cm2 ([2]; Cabbage Looper, rating class) of 50 to 100%.
